# Key:
# [1] = Clinical biochemistry markers in serum, intervention trial LDLr KO mice; format: in vivo, mouse; conditions: Intervention (8 + 8 weeks), mean ± SEM
# Source text: (§1) To assess the therapeutic effect of FAK inhibition, the following three different designs were applied: prevention (1) and therapeutic intervention (2) in apoE KO mice, and therapeutic intervention (3) in LDLr KO mice. The prevention trial consisted of 8-week concurrent treatment with the HF/HC diet following 1 week of pre-loading of the HF/HC diet (Additional file 3: Figure S2A). The therapeutic intervention trial consisted of 6- and 8-week treatment after 6- and 8-week pre-loading of the HF/HC diet in apoE KO and LDLr KO mice, respectively (Additional file 3: Figure S2B). Body weight and food intake were measured once weekly. The mice were euthanized under terminal inhalation anesthesia with isoflurane followed by blood collection from abdominal vein.
# (§2) Atherosclerotic lesion area was evaluated in the aorta by en face analysis (Additional file 4: Figure S3A) and in aortic root by cross-sectional analysis (Additional file 4: Figure S3B). The aorta was subjected to Sudan IV staining, and total area of the plaque lesion (TAOL) and area of whole aorta from arch without the region of brachiocephalic artery to common iliac artery (AOWA) were measured using the Definiens imaging software. Area of lesion (%) was calculated by the following formula; Area of lesion (%) = TAOL/AOWA × 100. After en face analysis, the aorta was washed and then blotted dry, weighed, minced, and total lipid was extracted with chloroform/methanol. Total and free cholesterol levels in the aortic extracts were determined with an enzymatic colorimetric assay (Wako Pure Chemical Industries Ltd.). Cross sections were cut at 5 μm thickness and 6 serial sections were collected every 50 μm along the aortic root. Lesion area analysis was made on the cross sections subjected to hematoxylin and eosin (HE) staining. Three representative sections derived from 3 segments were quantified per mouse. Lesion area values from the 3 sections were summed up. Histological features using serial cross sections were subjected to staining for EvG and anti Mac-3 antigen. Clinical biochemistry markers in serum was evaluated using DRICHEM 7000 (FUJIFILM Medical, Japan). Statistical comparison of control and compound 12-treated groups was carried out with a Mann–Whitney test (two-tailed) using GraphPad Prism.
# (§3) Data are mean ± SEM. *; P < 0.05, **; P < 0.01 ***; P < 0.001 as compared with the control.
# [2] = Clinical biochemistry markers in serum, prevention trial apoE KO mice; format: in vivo, mouse; conditions: Prevention (8 weeks), mean ± SEM
# Source text: as §1, §2, §3
# [3] = tested on: c-Src; conditions: cited from earlier work
# [4] = tested on: IGF-1R (insulin-like growth factor 1 receptor kinase); conditions: cited from earlier work
# [5] = tested on: CDK1 (cyclin-dependent kinase 1); conditions: cited from earlier work
# [6] = tested on: apoE KO mice; experiment: Atherosclerosis prevention trial in apoE KO mice; format: in vivo, mouse
# Description: (§4) The mutant male mice, apoE KO (B6.129P2-Apoe^tm1Unc/J) and LDLr KO (B6.129S7-Ldlr^tm1Her/J) at the age of 7 weeks, were purchased from Charles River Laboratories, and acclimated to the facility for 7 days. The mice were housed at 25 °C with a 12:12 h light–dark cycle, and food and water were provided ad libitum. The HF/HC diet D12108 containing 1.25% cholesterol and 20% fat was purchased from Research Diets. A selective small molecule FAK inhibitor Compound 12 (Additional file 1: Figure S1; a 2-phenylamino-pyrimidin-4-ylamino-2,3-dihydro-isoindol-1-one derivative) was administrated as food admixture at a concentration of 0.03%. Compound 12 has an IC50 of 6 nM on FAK and no activity on insulin receptor kinase, insulin-like growth factor 1 receptor kinase, cyclin-dependent kinase 1 and Src (Additional file 2: Table S1) as described by Kawahara et al.).
# as §1, §2
# [7] = tested on: IRK (insulin receptor kinase); conditions: cited from earlier work
# [8] = tested on: FAK; conditions: cited from earlier work
# [9] = tested on: apoE KO mice; experiment: Atherosclerosis therapeutic intervention trial in apoE KO mice; format: in vivo, mouse
# Description: as §4, §1, §2
# [10] = tested on: LDLr KO mice; experiment: Atherosclerosis therapeutic intervention trial in LDLr KO mice; format: in vivo, mouse; conditions: 0.03% food admixture
# Description: as §4, §1, §2
# [11] = Clinical biochemistry markers in serum, intervention trial apoE KO mice; format: in vivo, mouse; conditions: Intervention (6 + 6 weeks), mean ± SEM
# Source text: as §1, §2, §3
# [12] = means, radiolabeled ATP, DELFIA or TR-FRET method
# [13] = therapeutic intervention, 0.03% food admixture
smiles,measurement,setting,value
"COc1ccc(Nc2ncc(Cl)c(Nc3ccc(N4CCC(N5CCN(C)CC5)CC4)c4c3C(=O)N(C)C4)n2)c(OC)c1 [Compound 12, 7-[5-Chloro-2-(2,4-dimethoxy-phenylamino)-pyrimidin-4-ylamino]-2-methyl-4-[4-(4-methyl-piperazin-1-yl)-piperidin-1-yl]-2,3-dihydro-isoindol-1-one]",ALB,[1],2.2 ± 0.05 g/dL
same,ALP,[1],406 ± 34^** U/L
same,ALT,[1],24 ± 1.6^** U/L
same,AST,[1],97 ± 8.0 U/L
same,BUN,[1],32 ± 1.2 mg/dL
same,CPK,[1],196 ± 76^** U/L
same,CRE,[1],0.3 ± 0.02^*** mg/dL
same,LDH,[1],295 ± 38 U/L
same,T-BIL,[1],0.6 ± 0.05 mg/dL
same,T-Chol,[1],714 ± 51^*** mg/dL
same,TG,[1],273 ± 21 mg/dL
same,ALB,[2],2.2 ± 0.07^* g/dL
same,ALP,[2],554 ± 31^** U/L
same,ALT,[2],25 ± 1.6 U/L
same,AST,[2],115 ± 15 U/L
same,BUN,[2],41 ± 2.5 mg/dL
same,CPK,[2],700 ± 362 U/L
same,CRE,[2],0.3 ± 0.02^*** mg/dL
same,Glc,[2],167 ± 16 mg/dL
same,Insulin,[2],751 ± 109 pg/mL
same,LDH,[2],535 ± 47^** U/L
same,T-BIL,[2],0.5 ± 0.03 mg/dL
same,T-Chol,[2],"1,221 ± 102^* mg/dL"
same,TG,[2],94 ± 8.4^* mg/dL
same,activity on Src,[3],no activity
same,IC50,[3]; [12],> 10 µM
same,activity on insulin-like growth factor 1 receptor kinase,[4],no activity
same,IC50,[4]; [12],> 10 µM
same,activity on cyclin-dependent kinase 1,[5],no activity
same,IC50,[5]; [12],> 10 µM
same,body weight change,[6]; 0.03% food admixture,no remarkable changes
same,food intake,[6]; 0.03% food admixture,no remarkable changes
same,tolerability,[6]; 0.03% food admixture,generally well tolerated
same,"histological features of atherosclerotic plaques (HE, EvG, anti Mac-3)","[6]; 8 weeks, 0.03% food admixture","foam cell rich, reduced fibrous and lipid core regions"
same,reduction of lesion area of the aorta (en face analysis) vs control,"[6]; 8 weeks, 0.03% food admixture with HF/HC diet",41.2%
same,cholesterol content in aorta,"[6]; 8 weeks, 0.03% food admixture, P < 0.01 vs control",significantly reduced
same,lesion area of aortic root (cross-sectional analysis),"[6]; 8 weeks, 0.03% food admixture, P < 0.05 vs control",significantly reduced
same,"lesion area of the aorta (en face analysis, TAOL/AOWA x 100)","[6]; 8 weeks, 0.03% food admixture, control 8.92%",5.24%
same,activity on insulin receptor kinase,[7],no activity
same,IC50,[7]; [12],> 3.3 µM
same,IC50,[8],0.006 µM
same,lesion area of aortic root (cross-sectional analysis),"[9]; intervention 6 + 6 weeks, 0.03% food admixture",appeared to be reduced
same,cholesterol content in aorta,"[9]; intervention 6 + 6 weeks, 0.03% food admixture, P < 0.05 vs control",significantly reduced
same,lesion area of the aorta (en face analysis),"[9]; intervention 6 + 6 weeks, 0.03% food admixture, normalized to Control at 6 weeks, control at 12 weeks 8.03%",4.75%
same,change of lesion area (mm^2) of aortic root vs control,"[9]; intervention 6 + 6 weeks, 0.03% food admixture, printed in Fig. 2e",-15%
same,reduction of lesion area of the aorta (en face analysis) vs control,"[9]; intervention, 6 + 6 weeks, 0.03% food admixture with HF/HC diet",40.9%
same,body weight change,[9]; [13],no remarkable changes
same,food intake,[9]; [13],no remarkable changes
same,tolerability,[9]; [13],generally well tolerated
same,cholesterol content in aorta,"[10]; intervention 8 + 8 weeks, P < 0.01 vs control",significantly reduced
same,lesion area of the aorta (en face analysis),"[10]; intervention 8 + 8 weeks, normalized to Control at 8 weeks, control at 16 weeks 8.51%",5.83%
same,body weight change,[10]; therapeutic intervention,no remarkable changes
same,food intake,[10]; therapeutic intervention,no remarkable changes
same,tolerability,[10]; therapeutic intervention,generally well tolerated
same,ALB,[11],2.3 ± 0.04 g/dL
same,ALP,[11],469 ± 37^*** U/L
same,ALT,[11],26 ± 1.3 U/L
same,AST,[11],108 ± 7.0 U/L
same,BUN,[11],42 ± 2.5 mg/dL
same,CPK,[11],227 ± 48 U/L
same,CRE,[11],0.3 ± 0.02^*** mg/dL
same,LDH,[11],590 ± 36^* U/L
same,T-BIL,[11],0.5 ± 0.05 mg/dL
same,T-Chol,[11],"1,016 ± 53^* mg/dL"
same,TG,[11],93 ± 6.7^** mg/dL

# — publication PMC6446301, “Evaluation of therapeutic effects of FAK inhibition in murine models of atherosclerosis” (BMC Research Notes, 2019)
